6 compounds from ChEMBL document CHEMBL6092155, “211At radiolabeled APBA-FAPI for enhanced targeted-alpha therapy of glioma” (Eur J Med Chem, 2024) can be followed below.

Active and inactive are the calls of the source. The calls are words filed in the database; no cut-off is given here.

A short description of data set [1]: Octanol/[…] partition coefficient, log P of the compound. The data set is classed as physicochemical.
A short description of data set [2]: Toxicity in female BALB/c nude mouse assessed as effect on liver at 0.37 to 1.11 MBq, iv measured after 7 days of postinjection by H and E staining based analysis. The note with it: in vivo, 168 h, dose 0.37-1.11 MBq, time 7 day. The format is organism-based.
For data set [3], the system named is U-87 MG. The experiment in a line: Antitumor activity against human U-87 MG cells xenografted in female BALB/c nude mouse model assessed as tumor growth inhibition at 0.74 MBq, iv measured after 36 days postinjection relative to control. The format is functional, U-87MG ATCC. The note with it: time 36 day.
A short description of data set [4]: Toxicity in female BALB/c nude mouse assessed as hemoglobin indices at 0.37 to 1.11 MBq, iv measured after 7 days of postinjection by blood analysis. The data set is classed as organism-based. The note with it: in vivo, 168 h, dose 0.37-1.11 MBq, time 7 day.
Data set [5] can be described thus: Stability of compound in PBS incubated for 3 to 24 hrs assessed as radiochemical purity (RCP) relative to control. The note with it: buffer; time 3-24 hrs. The format is physicochemical.
Data set [6] is described as follows: Stability of the compound in fetal bovine serum assessed as radiochemical purity (RCP) incubated for 3 to 24 hrs relative to control. The data set is classed as ADME, cell-free, Bos taurus. The note with it: cattle, time 3-24 hrs.
Data set [7] deals with T1, Albumin (Homo sapiens, UniProt P02768). The experiment in a line: Binding affinity to human serum albumin assessed as binding rate incubated for 30 min relative to control. The note with it: isolated protein, 0.5 h. The format is ADME.
Data set [8] can be described thus: Toxicity in female BALB/c nude mouse model assessed as body weight loss measured at 0.74 to 1.11 MBq, iv after 40 days of postinjection. The format is organism-based. The note with it: in vivo, 960 h, dose 0.74-1.11 MBq, time 40 day.
Data set [9] in a line: Toxicity in female BALB/c nude mouse model assessed as animal death at 0.74 MBq, iv measured after 38 days. The format is organism-based. The note with it: in vivo, 912 h, time 38 day.
Data set [10] deals with U-87 MG. The experiment in a line: Antiproliferative activity against human U-87 MG cells assessed as inhibition of cell viability at 148 KBq incubated for 12 hrs followed by replacement with fresh media and measured after 24 hrs by CCK-8 method relative to control. The data set is classed as functional, U-87MG ATCC. In general terms: Tetrazolium assays rely on reduction of a dye to a coloured formazan, in cell work by metabolically active cells.

Data set [11] concerns U-87 MG. The experiment in a line: Antitumor activity against human U-87 MG cells xenografted in female BALB/c nude mouse model assessed as tumor growth inhibition at 0.74 MBq, iv measured after 8 days postinjection relative to control. The data set is classed as functional, U-87MG ATCC. The note with it: time 8 day.
Data set [12] can be described thus: Toxicity in female BALB/c nude mouse model assessed as animal death at 1.11 MBq, iv measured after 10 days. The format is organism-based. The note with it: in vivo, 240 h, time 10 day.
For data set [13], the system named is U-87 MG. The experiment in a line: Antitumor activity against human U-87 MG cells xenografted in female BALB/c nude mouse model assessed as tumor growth inhibition at 1.11 MBq, iv measured after 8 days postinjection relative to control. The data set is classed as functional, U-87MG ATCC. The note with it: time 8 day. For orientation: A xenograft is tissue or cells of one species grown in another, often human tumour cells in immunodeficient mice.

Data set [14] has as its target T1, Albumin. The experiment in a line: Binding affinity to human serum albumin assessed as decrease in HAS binding incubated for 30 mins under ibuprofen relative to control. Details: scale not given: the % may be the effect or the level left. The note with it: isolated protein, 0.5 h. The data set is classed as ADME.
The nature of data set [15]: Toxicity in female BALB/c nude mouse assessed as effect on stomach at 0.37 to 1.11 MBq, iv measured after 7 days of postinjection by H and E staining based analysis. The data set is classed as organism-based. The note with it: in vivo, 168 h, dose 0.37-1.11 MBq, time 7 day.
The subject of data set [16] is U-87 MG. The experiment in a line: Antitumor activity against human U-87 MG cells xenografted in female BALB/c nude mouse model assessed as tumor growth inhibition at 0.37 MBq, iv measured after 8 days postinjection relative to control. The format is functional, U-87MG ATCC. The note with it: time 8 day.
Data set [17] deals with T1, Albumin. The experiment in a line: Binding affinity to human serum albumin assessed as decrease in HAS binding incubated for 30 mins under warfarin blocking relative to control. The data set is classed as ADME. Details: scale not given: the % may be the effect or the level left. The note with it: isolated protein, 0.5 h.
Data set [18] is described as follows: Toxicity in female BALB/c nude mouse assessed as thyroid gland damage at 1.11 MBq, iv measured after 7 days of postinjection by H and E staining based analysis. The data set is classed as organism-based. The note with it: in vivo, 168 h, time 7 day.
Data set [19] relates to U-87 MG. The experiment in a line: Antiproliferative activity against human U-87 MG cells assessed as inhibition of cell viability at 18.5 KBq incubated for 12 hrs followed by replacement with fresh media and measured after 24 hrs by CCK-8 method relative to control. The format is functional, U-87MG ATCC.
Data set [20] can be described thus: Drug uptake in human FAPalpha-positive U-87 MG cells incubated for 30 to 120 min by gamma counter analysis relative to control. The format is ADME, cell-based. The note with it: u-87mg atcc, time 30-120 min.
Data set [21] has as its system U-87 MG. The experiment in a line: Antitumor activity against human U-87 MG cells xenografted in female BALB/c nude mouse model assessed as tumor growth inhibition at 0.37 MBq, iv measured after 36 days postinjection relative to control. The format is functional, U-87MG ATCC. The note with it: time 36 day.
Data set [22] can be described thus: Toxicity in female BALB/c nude mouse assessed as effect on lung at 0.37 to 1.11 MBq, iv measured after 7 days of postinjection by H and E staining based analysis. The format is organism-based. The note with it: in vivo, 168 h, dose 0.37-1.11 MBq, time 7 day.
Data set [23] in a line: Toxicity in female BALB/c nude mouse assessed as red blood cell count at 0.37 to 1.11 MBq, iv measured after 7 days of postinjection by blood analysis. The data set is classed as organism-based. The note with it: in vivo, 168 h, dose 0.37-1.11 MBq, time 7 day.
Data set [24] in a line: Toxicity in female BALB/c nude mouse assessed as effect on kidney at 0.37 to 1.11 MBq, iv measured after 7 days of postinjection by H and E staining based analysis. The format is organism-based. The note with it: in vivo, 168 h, dose 0.37-1.11 MBq, time 7 day.
The nature of data set [25]: Drug uptake in human U-87 MG cells incubated for 120 min under FAPI-04 monomer blocking condition by gamma counter analysis relative to control. The data set is classed as ADME, cell-based. The note with it: u-87mg atcc, 2 h.
Data set [26] is described as follows: Drug penetration in human FAPalpha-positive U-87 MG cells assessed as blood brain barrier translocation rate incubated upto 4 hrs by invitro BBB assay (reference value: 0.54+/-0.12%). The format is ADME, cell-based. The note with it: u-87mg atcc.
Data set [27] in a line: Toxicity in female BALB/c nude mouse assessed as decrease platelet count at 0.37 to 1.11 MBq, iv measured after 7 days of postinjection by blood analysis. The data set is classed as organism-based. The note with it: in vivo, 168 h, dose 0.37-1.11 MBq, time 7 day.
The nature of data set [28]: Drug uptake in mouse FAPalpha-negative 4T1 cells incubated for 120 min by gamma counter analysis relative to control. The data set is classed as ADME, cell-based. The note with it: 4t1, 2 h.
The nature of data set [29]: Drug uptake in human FAPalpha-positive U-87 MG cells incubated for 120 min by gamma counter analysis relative to control. The format is ADME, cell-based. The note with it: u-87mg atcc, 2 h.
Data set [30] deals with U-87 MG. The experiment in a line: Antitumor activity against human U-87 MG cells assessed as induction of apoptosis in tumor tissue at 1.11 MBq, iv by TUNEL analysis. The data set is classed as functional, organism-based. The note with it: U-87MG ATCC, tested as the 211At-labelled form.
Data set [31] has as its system U-87 MG. The experiment in a line: Antitumor activity against human U-87 MG cells assessed as inhibition of cell proliferation by measuring reduction in number of Ki67 positive cells at 1.11 MBq, iv administered for 7 days by immunohistochemical analysis. The format is functional, organism-based. The note with it: U-87MG ATCC, time 7.0 day, tested as the 211At-labelled form.

The subject of data set [32] is U-87 MG. The experiment in a line: Antitumor activity against human U-87 MG cells xenografted in female BALB/c nude mouse model assessed as increase in survival time at 0.74 to 1.11 MBq, iv measured upto 70 days postinjection. The data set is classed as functional, organism-based. The note with it: U-87MG ATCC, dose 0.74-1.11 MBq, time <= 70.0 day, tested as the 211At-labelled form.

Data set [33] can be described thus: Drug uptake in human FAPalpha-negative MCF7 cells incubated for 120 min by gamma counter analysis relative to control. The data set is classed as ADME, cell-based. The note with it: mcf7, 2 h.
Data set [34] can be described thus: Stability of the compound in fetal bovine serum incubated for 3 to 24 hrs by RCP analysis (Del). The note with it: cattle, time 3-24 hrs. The data set is classed as ADME, cell-free.

T1 sequence (P02768 whole entry): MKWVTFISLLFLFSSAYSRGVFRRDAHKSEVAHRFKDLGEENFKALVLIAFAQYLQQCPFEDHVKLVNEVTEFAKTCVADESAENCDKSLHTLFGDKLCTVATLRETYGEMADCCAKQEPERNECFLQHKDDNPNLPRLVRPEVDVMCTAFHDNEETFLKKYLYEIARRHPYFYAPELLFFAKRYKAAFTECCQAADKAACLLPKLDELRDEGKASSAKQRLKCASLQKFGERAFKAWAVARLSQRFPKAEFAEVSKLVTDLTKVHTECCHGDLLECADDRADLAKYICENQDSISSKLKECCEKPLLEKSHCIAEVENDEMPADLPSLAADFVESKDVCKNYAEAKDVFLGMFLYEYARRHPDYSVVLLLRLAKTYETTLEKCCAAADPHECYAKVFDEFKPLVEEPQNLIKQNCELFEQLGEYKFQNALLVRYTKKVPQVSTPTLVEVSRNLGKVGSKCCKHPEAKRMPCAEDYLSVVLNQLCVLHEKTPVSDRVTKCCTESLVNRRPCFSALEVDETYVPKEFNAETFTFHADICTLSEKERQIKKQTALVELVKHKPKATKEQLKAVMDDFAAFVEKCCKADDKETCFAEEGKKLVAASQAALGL

With `N#C[C@@H]1CC(F)(F)CN1C(=O)CNC(=O)c1ccnc2ccc(OCCCN3CCN(C(=O)c4ccc([131I])cc4)CC3)cc12`, the logP – broadly, a log measure of how a compound divides between an organic and an aqueous phase – in [1] came out at 2.12.

In data set [1], `N#C[C@@H]1CC(F)(F)CN1C(=O)CNC(=O)c1ccnc2ccc(OCCCN3CCN(C(=O)CCCc4ccc([211At])cc4)CC3)cc12` showed a logP of 2.37. For the same compound, the Activity entry in data set [2] is given as “Non-toxic”; in data set [4], “Non-toxic”; at Albumin [7] it was 7.63%; in data set [8] it was “Non-toxic”; in data set [9], “Toxic”; in data set [12], “Toxic”. The Activity was 4.01% at Albumin [14]; “Non-toxic” in data set [15]; 3.54% on Albumin [17]; “Toxic” in data set [18]; “Non-toxic” in data set [22]; “Non-toxic” in data set [23]. For the same compound, the figures for the Activity result in [24] and in data set [27] were “Non-toxic” and “Toxic”, respectively. Further, the TGI (in general, how far tumour growth fell short of that in controls) in the data set on U-87 MG [3] came out at 4.2%; in the data set with U-87 MG [11] it was 92.28%; in the data set on U-87 MG [13], 94.99%; with U-87 MG [16], 84.98%; in the data set on U-87 MG [21], 10.46%. Further, the figures for the Stability in data set [5] and in data set [6] were 88.17% and 91.4%, respectively. Moreover, the “inhibition (INH)” value came out at 48.58% with U-87 MG [10] and 70.95% with U-87 MG [19]. In addition, the Drug uptake in data set [20] was 40.8%; in data set [25] it was 12.86%; in data set [26] it was 2.06%.

In the case of `[211AtH]`, the figures for the Drug uptake in [28] and in [29] were 11.22% and 2.75%, respectively.

Turning to `N#C[C@@H]1CC(F)(F)CN1C(=O)CNC(=O)c1ccnc2ccc(OCCCN3CCN(C(=O)CCCc4ccc([At])cc4)CC3)cc12`, the outcome in the data set with U-87 MG [30], with U-87 MG [31] and with U-87 MG [32] was Active.

For the compound `N#C[C@@H]1CC(F)(F)CN1C(=O)CNC(=O)c1ccnc2ccc(OCCCN3CCN(C(=O)CCCc4ccc([131I])cc4)CC3)cc12`, the logP in data set [1] was found to be 2.43. Also, the Drug uptake turned out to be 7.77% in [33] and 3.71% in data set [26].

Take `N#C[C@@H]1CC(F)(F)CN1C(=O)CNC(=O)c1ccnc2ccc(OCCCN3CCN(C(=O)c4ccc([211At])cc4)CC3)cc12`: in data set [1], the logP amounted to 1.96. The same compound came in with a Stability in data set [34] of 71%.
